Test results as given in ChEMBL document CHEMBL4507310, “Data for DCP probe A-1211212” (2021).

Key:
[1] = biological target: Discoidin domain-containing receptor 2 (Homo sapiens) (UniProt Q16832); details: Compound concentration 1000.0 nM
[2] = biological target: Mitogen-activated protein kinase kinase kinase kinase 3 (Homo sapiens) (UniProt Q8IVH8); details: Compound concentration 1000.0 nM
[3] = biological target: Phosphatidylinositol 4-phosphate 5-kinase type-1 alpha (Homo sapiens) (UniProt Q99755); details: Compound concentration 1000.0 nM
[4] = biological target: Serine/threonine-protein kinase TAO3 (Homo sapiens) (UniProt Q9H2K8); details: Compound concentration 1000.0 nM
[5] = biological target: Serine/threonine-protein kinase PLK1 (Homo sapiens) (UniProt P53350); details: Compound concentration 1000.0 nM
[6] = biological target: Calcium-dependent protein kinase 1 (Plasmodium falciparum) (UniProt P62344); details: Compound concentration 1000.0 nM
[7] = biological target: Serine/threonine-protein kinase PLK4 (Homo sapiens) (UniProt O00444); details: Compound concentration 1000.0 nM
[8] = biological target: Histamine H3 receptor (Homo sapiens) (UniProt Q9Y5N1); details: Compound concentration 10.0 uM
[9] = biological target: Mitogen-activated protein kinase kinase kinase 11 (Homo sapiens) (UniProt Q16584); details: Compound concentration 1000.0 nM
[10] = biological target: Cyclin-dependent kinase 15 (Homo sapiens) (UniProt Q96Q40); details: Compound concentration 1000.0 nM
[11] = biological target: Serine/threonine-protein kinase Nek7 (Homo sapiens) (UniProt Q8TDX7); details: Compound concentration 1000.0 nM
[12] = biological target: Serine/threonine-protein kinase D3 (Homo sapiens) (UniProt O94806); details: Compound concentration 1000.0 nM
[13] = biological target: Vascular endothelial growth factor receptor 3 (Homo sapiens) (UniProt P35916); details: Compound concentration 1000.0 nM
[14] = biological target: Phosphatidylinositol 3-kinase C2 domain-containing subunit gamma (Homo sapiens) (UniProt O75747); details: Compound concentration 1000.0 nM
[15] = biological target: Tyrosine-protein kinase Mer (Homo sapiens) (UniProt Q12866); details: Compound concentration 1000.0 nM
[16] = biological target: Ephrin type-B receptor 2 (Homo sapiens) (UniProt P29323); details: Compound concentration 1000.0 nM
[17] = system: Epidermal growth factor receptor (Homo sapiens), P00533 [G719S]; details: Compound concentration 1000.0 nM
[18] = system: Epidermal growth factor receptor (Homo sapiens), P00533 [UNDEFINED MUTATION]; details: Compound concentration 1000.0 nM
[19] = biological target: Casein kinase I isoform epsilon (Homo sapiens) (UniProt P49674); details: Compound concentration 1000.0 nM
[20] = biological target: Focal adhesion kinase 1 (Homo sapiens) (UniProt Q05397); details: Compound concentration 1000.0 nM
[21] = biological target: Phosphatidylinositol 4,5-bisphosphate 3-kinase catalytic subunit beta isoform (Homo sapiens) (UniProt P42338); details: Compound concentration 1000.0 nM
[22] = biological target: L-type Ca2+ channel (diltiazem site, benzothiazepines) (Rattus norvegicus, UniProt P22002+P27732+Q02485); test: Ca2+ channel (L, diltiazem site) (benzothiazepines) Eurofins-Cerep binding assay; assay type: protein assay; parameters: incubation time 120 min, incubation temperature RT, ligand concentration 15 nM; details: rat cerebral cortex, probe [3H]diltiazem (15 nM), compound concentration 10 uM, read-out: % Inhibition of Control Specific Binding (Mean n=2)
[23] = biological target: Receptor-type tyrosine-protein kinase FLT3 (Homo sapiens) (UniProt P36888); details: Compound concentration 1000.0 nM
[24] = biological target: Atypical kinase COQ8B, mitochondrial (Homo sapiens) (UniProt Q96D53); details: Compound concentration 1000.0 nM
[25] = system: Proto-oncogene tyrosine-protein kinase receptor Ret (Homo sapiens), P07949 [V804M]; details: Compound concentration 1000.0 nM
[26] = biological target: Aurora kinase B (Homo sapiens) (UniProt Q96GD4); details: Compound concentration 1000.0 nM
[27] = biological target: Serine/threonine-protein kinase PAK 6 (Homo sapiens) (UniProt Q9NQU5); details: Compound concentration 1000.0 nM
[28] = biological target: D(2) dopamine receptor (Homo sapiens) (UniProt P14416); test: D2S (h) Eurofins-Cerep binding assay; parameters: ligand concentration 0.3 nM; details: filed as antagonist, Compound concentration 10.0 uM
[29] = system: Receptor-type tyrosine-protein kinase FLT3 (Homo sapiens), P36888 [K663Q]; details: Compound concentration 1000.0 nM
[30] = biological target: Insulin receptor-related protein (Homo sapiens) (UniProt P14616); details: Compound concentration 1000.0 nM
[31] = biological target: NUAK family SNF1-like kinase 1 (Homo sapiens) (UniProt O60285); details: Compound concentration 1000.0 nM
[32] = system: Proto-oncogene tyrosine-protein kinase receptor Ret (Homo sapiens), P07949 [V804L]; details: Compound concentration 1000.0 nM
[33] = system: Tyrosine-protein kinase ABL1 (Homo sapiens), P00519 [Q252H]; details: Compound concentration 1000.0 nM
[34] = biological target: Serine/threonine-protein kinase 17A (Homo sapiens) (UniProt Q9UEE5); details: Compound concentration 1000.0 nM
[35] = biological target: Calcium/calmodulin-dependent protein kinase type 1 (Homo sapiens) (UniProt Q14012); details: Compound concentration 1000.0 nM
[36] = biological target: Mitogen-activated protein kinase 14 (Homo sapiens) (UniProt Q16539); details: Compound concentration 1000.0 nM
[37] = biological target: Muscarinic acetylcholine receptor M3 (Homo sapiens) (UniProt P20309); test: M3 (h) Eurofins-Cerep binding assay; parameters: ligand concentration 0.2 nM; details: filed as antagonist, Compound concentration 10.0 uM
[38] = biological target: Mast/stem cell growth factor receptor Kit (Homo sapiens) (UniProt P10721); details: Compound concentration 1000.0 nM
[39] = biological target: ALK tyrosine kinase receptor (Homo sapiens) (UniProt Q9UM73); details: Compound concentration 1000.0 nM
[40] = biological target: Tyrosine-protein kinase Blk (Homo sapiens) (UniProt P51451); details: Compound concentration 1000.0 nM
[41] = biological target: Ribosomal protein S6 kinase alpha-4 (Homo sapiens) (UniProt O75676); details: Compound concentration 1000.0 nM
[42] = system: Tyrosine-protein kinase ABL1 (Homo sapiens), P00519 [T315I]; details: Compound concentration 1000.0 nM
[43] = system: Tyrosine-protein kinase ABL1 (Homo sapiens), P00519 [H396P]; details: Compound concentration 1000.0 nM
[44] = biological target: Testis-specific serine/threonine-protein kinase 3 (Homo sapiens) (UniProt Q96PN8); details: Compound concentration 1000.0 nM
Testis-specific serine/threonine-protein kinase 3 (Homo sapiens), sequence (Q96PN8 whole entry): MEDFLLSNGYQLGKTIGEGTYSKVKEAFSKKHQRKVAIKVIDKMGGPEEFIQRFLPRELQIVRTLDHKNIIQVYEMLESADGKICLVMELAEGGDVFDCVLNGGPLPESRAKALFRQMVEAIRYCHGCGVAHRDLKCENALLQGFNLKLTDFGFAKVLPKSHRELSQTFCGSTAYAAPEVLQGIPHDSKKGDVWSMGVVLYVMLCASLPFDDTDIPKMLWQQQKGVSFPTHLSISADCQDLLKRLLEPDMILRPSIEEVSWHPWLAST

Mast/stem cell growth factor receptor Kit (Homo sapiens), sequence (P10721 whole entry): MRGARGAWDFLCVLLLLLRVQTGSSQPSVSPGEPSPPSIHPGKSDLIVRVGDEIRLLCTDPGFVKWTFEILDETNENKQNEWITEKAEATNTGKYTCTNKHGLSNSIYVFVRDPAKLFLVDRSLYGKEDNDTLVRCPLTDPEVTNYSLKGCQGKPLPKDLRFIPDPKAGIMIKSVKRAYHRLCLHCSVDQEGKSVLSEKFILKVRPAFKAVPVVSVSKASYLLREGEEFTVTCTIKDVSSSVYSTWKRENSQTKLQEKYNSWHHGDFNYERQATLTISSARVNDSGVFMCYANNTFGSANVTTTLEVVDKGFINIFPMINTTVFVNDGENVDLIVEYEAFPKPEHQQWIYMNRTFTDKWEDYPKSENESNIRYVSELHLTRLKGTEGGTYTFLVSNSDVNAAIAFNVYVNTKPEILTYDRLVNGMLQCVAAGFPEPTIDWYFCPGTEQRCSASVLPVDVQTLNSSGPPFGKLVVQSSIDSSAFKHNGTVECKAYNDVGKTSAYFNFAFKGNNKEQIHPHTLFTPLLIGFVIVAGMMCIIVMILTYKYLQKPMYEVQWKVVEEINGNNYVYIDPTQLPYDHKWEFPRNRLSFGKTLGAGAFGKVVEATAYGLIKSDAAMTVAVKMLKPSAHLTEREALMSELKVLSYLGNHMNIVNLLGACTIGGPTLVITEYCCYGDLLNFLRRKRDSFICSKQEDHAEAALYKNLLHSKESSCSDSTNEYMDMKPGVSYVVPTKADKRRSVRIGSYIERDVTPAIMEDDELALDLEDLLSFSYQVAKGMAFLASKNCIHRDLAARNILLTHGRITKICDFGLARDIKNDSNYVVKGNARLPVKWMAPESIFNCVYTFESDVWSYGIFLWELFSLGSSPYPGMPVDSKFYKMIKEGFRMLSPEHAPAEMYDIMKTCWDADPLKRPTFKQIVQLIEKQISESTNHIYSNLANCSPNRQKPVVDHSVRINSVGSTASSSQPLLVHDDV
Discoidin domain-containing receptor 2 (Homo sapiens), sequence (Q16832 whole entry, the tested form may be a part): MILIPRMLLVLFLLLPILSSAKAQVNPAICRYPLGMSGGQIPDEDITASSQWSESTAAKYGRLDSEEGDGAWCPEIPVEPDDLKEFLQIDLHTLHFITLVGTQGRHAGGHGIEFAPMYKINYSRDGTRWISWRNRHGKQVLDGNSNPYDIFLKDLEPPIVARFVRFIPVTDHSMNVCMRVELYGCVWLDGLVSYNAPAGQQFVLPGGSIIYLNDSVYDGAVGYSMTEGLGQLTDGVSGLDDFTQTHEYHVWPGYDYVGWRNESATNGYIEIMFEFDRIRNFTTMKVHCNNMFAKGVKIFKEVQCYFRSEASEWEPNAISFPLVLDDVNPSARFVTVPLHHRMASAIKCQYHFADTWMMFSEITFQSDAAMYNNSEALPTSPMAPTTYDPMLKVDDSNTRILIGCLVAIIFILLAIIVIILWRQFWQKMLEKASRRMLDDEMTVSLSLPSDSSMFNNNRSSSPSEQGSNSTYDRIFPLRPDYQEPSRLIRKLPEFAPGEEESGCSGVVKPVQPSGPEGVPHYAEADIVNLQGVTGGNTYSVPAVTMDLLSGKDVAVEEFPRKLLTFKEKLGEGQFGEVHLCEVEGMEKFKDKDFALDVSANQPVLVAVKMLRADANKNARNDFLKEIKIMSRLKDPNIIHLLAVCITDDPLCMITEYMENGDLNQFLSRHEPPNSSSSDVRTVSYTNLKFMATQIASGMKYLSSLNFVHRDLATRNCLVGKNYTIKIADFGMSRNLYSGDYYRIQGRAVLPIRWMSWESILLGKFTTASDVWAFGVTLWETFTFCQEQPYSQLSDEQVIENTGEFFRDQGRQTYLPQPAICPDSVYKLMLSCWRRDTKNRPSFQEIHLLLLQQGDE
Phosphatidylinositol 4,5-bisphosphate 3-kinase catalytic subunit beta isoform (Homo sapiens), sequence (P42338 whole entry, looked up, canonical isoform): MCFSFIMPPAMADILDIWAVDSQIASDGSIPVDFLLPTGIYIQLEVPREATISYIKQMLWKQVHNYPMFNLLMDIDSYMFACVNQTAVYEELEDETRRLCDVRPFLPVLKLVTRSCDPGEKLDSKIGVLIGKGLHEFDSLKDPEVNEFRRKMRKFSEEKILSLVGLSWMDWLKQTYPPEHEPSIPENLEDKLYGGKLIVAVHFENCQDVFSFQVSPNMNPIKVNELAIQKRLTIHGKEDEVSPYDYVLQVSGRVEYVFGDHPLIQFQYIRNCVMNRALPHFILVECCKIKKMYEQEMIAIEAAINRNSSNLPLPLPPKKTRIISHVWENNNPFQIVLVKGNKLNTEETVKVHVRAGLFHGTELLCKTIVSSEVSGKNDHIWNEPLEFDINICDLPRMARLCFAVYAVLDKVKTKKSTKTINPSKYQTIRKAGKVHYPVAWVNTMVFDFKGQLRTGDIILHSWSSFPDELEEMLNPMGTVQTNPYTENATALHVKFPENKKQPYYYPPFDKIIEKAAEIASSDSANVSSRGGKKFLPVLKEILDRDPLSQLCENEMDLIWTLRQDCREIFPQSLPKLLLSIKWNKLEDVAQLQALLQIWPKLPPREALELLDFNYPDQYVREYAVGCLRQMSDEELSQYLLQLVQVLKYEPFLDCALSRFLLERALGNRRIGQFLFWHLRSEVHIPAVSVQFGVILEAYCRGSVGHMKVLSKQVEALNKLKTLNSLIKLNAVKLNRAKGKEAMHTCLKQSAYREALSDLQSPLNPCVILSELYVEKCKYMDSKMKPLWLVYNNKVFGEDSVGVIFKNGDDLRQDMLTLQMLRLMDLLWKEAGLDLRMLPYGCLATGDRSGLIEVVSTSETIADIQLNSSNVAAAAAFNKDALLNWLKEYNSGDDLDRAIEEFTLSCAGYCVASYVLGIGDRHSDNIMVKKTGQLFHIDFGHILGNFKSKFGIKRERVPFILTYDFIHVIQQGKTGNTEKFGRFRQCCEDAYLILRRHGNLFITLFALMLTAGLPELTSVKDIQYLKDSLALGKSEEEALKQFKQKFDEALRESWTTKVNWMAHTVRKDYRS
Mitogen-activated protein kinase 14 (Homo sapiens), sequence (Q16539 whole entry): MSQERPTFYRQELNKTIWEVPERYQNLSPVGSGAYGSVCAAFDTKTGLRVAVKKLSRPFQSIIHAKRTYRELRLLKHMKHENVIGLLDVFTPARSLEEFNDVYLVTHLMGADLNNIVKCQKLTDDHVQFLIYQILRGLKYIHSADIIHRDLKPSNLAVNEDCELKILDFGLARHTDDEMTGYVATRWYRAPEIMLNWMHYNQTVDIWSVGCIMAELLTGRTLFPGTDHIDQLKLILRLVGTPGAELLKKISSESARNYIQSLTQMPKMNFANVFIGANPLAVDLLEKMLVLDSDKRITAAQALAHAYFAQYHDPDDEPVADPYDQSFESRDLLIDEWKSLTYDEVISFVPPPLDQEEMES
Serine/threonine-protein kinase PLK1 (Homo sapiens), sequence (P53350 whole entry): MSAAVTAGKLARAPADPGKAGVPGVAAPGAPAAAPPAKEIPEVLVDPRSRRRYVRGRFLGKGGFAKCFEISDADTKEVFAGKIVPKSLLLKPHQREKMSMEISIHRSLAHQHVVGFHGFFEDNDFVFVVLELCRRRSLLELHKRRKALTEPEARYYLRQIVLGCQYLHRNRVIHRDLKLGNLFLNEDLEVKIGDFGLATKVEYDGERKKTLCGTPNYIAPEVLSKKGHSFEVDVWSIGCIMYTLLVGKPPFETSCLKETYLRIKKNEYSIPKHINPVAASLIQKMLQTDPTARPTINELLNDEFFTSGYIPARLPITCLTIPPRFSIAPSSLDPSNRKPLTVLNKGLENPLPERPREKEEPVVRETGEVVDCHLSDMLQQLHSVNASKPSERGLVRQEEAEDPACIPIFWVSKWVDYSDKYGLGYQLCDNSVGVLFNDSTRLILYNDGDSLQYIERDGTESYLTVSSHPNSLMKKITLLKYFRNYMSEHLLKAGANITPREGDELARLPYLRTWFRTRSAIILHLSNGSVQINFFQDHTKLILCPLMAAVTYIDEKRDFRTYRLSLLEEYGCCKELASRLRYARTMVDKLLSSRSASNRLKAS
Aurora kinase B (Homo sapiens), sequence (Q96GD4 whole entry): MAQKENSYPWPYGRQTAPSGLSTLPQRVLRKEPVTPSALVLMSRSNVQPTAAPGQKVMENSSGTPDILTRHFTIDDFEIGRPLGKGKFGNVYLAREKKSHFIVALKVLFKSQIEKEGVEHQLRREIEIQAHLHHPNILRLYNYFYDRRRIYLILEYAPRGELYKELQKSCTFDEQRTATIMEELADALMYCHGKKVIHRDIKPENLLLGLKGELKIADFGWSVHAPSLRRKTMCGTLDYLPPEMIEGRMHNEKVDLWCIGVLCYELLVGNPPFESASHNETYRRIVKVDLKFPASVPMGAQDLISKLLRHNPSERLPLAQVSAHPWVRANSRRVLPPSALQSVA
Phosphatidylinositol 4-phosphate 5-kinase type-1 alpha (Homo sapiens), sequence (Q99755 whole entry): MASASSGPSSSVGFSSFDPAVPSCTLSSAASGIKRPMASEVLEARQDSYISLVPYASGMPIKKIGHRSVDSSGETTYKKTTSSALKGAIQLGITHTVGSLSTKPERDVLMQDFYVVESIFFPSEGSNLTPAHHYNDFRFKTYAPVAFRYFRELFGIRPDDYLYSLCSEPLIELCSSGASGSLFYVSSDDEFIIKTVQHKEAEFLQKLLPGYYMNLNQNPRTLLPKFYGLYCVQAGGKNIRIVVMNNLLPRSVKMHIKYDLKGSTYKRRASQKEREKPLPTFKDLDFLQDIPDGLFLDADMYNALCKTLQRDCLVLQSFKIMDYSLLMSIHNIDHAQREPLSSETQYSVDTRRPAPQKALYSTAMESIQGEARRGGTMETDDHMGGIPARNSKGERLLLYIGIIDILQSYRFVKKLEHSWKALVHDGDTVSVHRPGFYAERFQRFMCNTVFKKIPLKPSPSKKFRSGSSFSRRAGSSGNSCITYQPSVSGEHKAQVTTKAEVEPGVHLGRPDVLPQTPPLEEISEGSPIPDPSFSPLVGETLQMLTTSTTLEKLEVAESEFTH

**Q.** Which residual activity [1] does the source give for O=C(NS(=O)(=O)c1ccc(NCC2CCOCC2)c([N+](=O)[O-])c1)c1ccc(N2CCN(Cc3ccc(C(F)(F)F)cc3-c3ccc(Cl)cc3)CC2)cc1Oc1cnc2[nH]ccc2c1 [A-1210227] here?
**A.** Its residual activity is 90%.

**Q.** And the residual activity [2]?
**A.** The residual activity was 92%.

**Q.** What about the residual activity [3] of the same compound?
**A.** Its residual activity is 93%.

**Q.** What about the residual activity [4] of the same compound?
**A.** Its residual activity is 86%.

**Q.** And the residual activity [5]?
**A.** Its residual activity is 90%.

**Q.** What about the residual activity [6] of the same compound?
**A.** Its residual activity is 82%.

**Q.** What about the residual activity [7] of the same compound?
**A.** Its residual activity is 98%.

**Q.** And the inhibition [8]?
**A.** Its inhibition is -1.15%.

**Q.** And the residual activity [9]?
**A.** The residual activity was 91%.

**Q.** What about the residual activity [10] of the same compound?
**A.** The residual activity was 100%.

**Q.** What about the residual activity [11] of the same compound?
**A.** Its residual activity is 97%.

**Q.** What about the residual activity [12] of the same compound?
**A.** The residual activity was 100%.

**Q.** And the residual activity [13]?
**A.** Its residual activity is 100%.

**Q.** And the residual activity [14]?
**A.** The residual activity was 80%.

**Q.** And the residual activity [15]?
**A.** The residual activity was 100%.

**Q.** And the residual activity [16]?
**A.** Its residual activity is 100%.

**Q.** What about the residual activity [17] of the same compound?
**A.** Its residual activity is 76%.

**Q.** What about the residual activity [18] of the same compound?
**A.** The residual activity was 86%.

**Q.** What about the residual activity [19] of the same compound?
**A.** Its residual activity is 95%.

**Q.** And the residual activity [20]?
**A.** The residual activity was 100%.

**Q.** What about the residual activity [21] of the same compound?
**A.** The residual activity was 100%.

**Q.** And the inhibition at 120 min, 10 µM [22]?
**A.** Its inhibition at 120 min, 10 µM is -124%.

**Q.** And the residual activity [23]?
**A.** The residual activity was 100%.

**Q.** And the residual activity [24]?
**A.** Its residual activity is 90%.

**Q.** What about the residual activity [25] of the same compound?
**A.** The residual activity was 100%.

**Q.** What about the residual activity [26] of the same compound?
**A.** The residual activity was 100%.

**Q.** And the residual activity [27]?
**A.** The residual activity was 73%.

**Q.** And the % Inhibition of Control Specific Binding (Mean n=2) [28]?
**A.** The % Inhibition of Control Specific Binding (Mean n=2) was 15.2%.

**Q.** And the residual activity [29]?
**A.** Its residual activity is 100%.

**Q.** What about the residual activity [30] of the same compound?
**A.** The residual activity was 98%.

**Q.** And the residual activity [31]?
**A.** The residual activity was 98%.

**Q.** What about the residual activity [32] of the same compound?
**A.** Its residual activity is 100%.

**Q.** And the residual activity [33]?
**A.** Its residual activity is 100%.

**Q.** And the residual activity [34]?
**A.** The residual activity was 100%.

**Q.** What about the residual activity [35] of the same compound?
**A.** Its residual activity is 100%.

**Q.** And the residual activity [36]?
**A.** The residual activity was 97%.

**Q.** And the % Inhibition of Control Specific Binding (Mean n=2) [37]?
**A.** Its % Inhibition of Control Specific Binding (Mean n=2) is 8.9%.

**Q.** And the residual activity [38]?
**A.** The residual activity was 100%.

**Q.** What about the residual activity [39] of the same compound?
**A.** The residual activity was 94%.

**Q.** And the residual activity [40]?
**A.** Its residual activity is 84%.

**Q.** What about the residual activity [41] of the same compound?
**A.** The residual activity was 100%.

**Q.** What about the residual activity [42] of the same compound?
**A.** The residual activity was 100%.

**Q.** And the residual activity [43]?
**A.** The residual activity was 94%.

**Q.** And the residual activity [44]?
**A.** Its residual activity is 79%.

**Q.** What does the source list for CO[C@H]1CC[C@H](CNc2ccc(S(=O)(=O)NC(=O)c3ccc(N4CCN(CC5=C(c6ccc(Cl)cc6)CC(C)(C)CC5)CC4)cc3Oc3cnc4[nH]ccc4c3)cc2[N+](=O)[O-])CC1 [A-1211212]?
**A.** residual activity [1]: 100%; residual activity [2]: 99%; residual activity [3]: 86%; residual activity [4]: 87%; residual activity [5]: 83%; residual activity [6]: 80%; residual activity [7]: 100%; inhibition [8]: 4.97%; residual activity [9]: 74%; residual activity [10]: 100%; residual activity [11]: 82%; residual activity [12]: 100%; residual activity [13]: 89%; residual activity [14]: 72%; residual activity [15]: 85%; residual activity [16]: 75%; residual activity [17]: 65%; residual activity [18]: 58%; residual activity [19]: 88%; residual activity [20]: 100%; residual activity [21]: 100%; inhibition at 120 min, 10 µM [22]: -6.2%; residual activity [23]: 100%; residual activity [24]: 100%; residual activity [25]: 93%; residual activity [26]: 100%; residual activity [27]: 75%; % Inhibition of Control Specific Binding (Mean n=2) [28]: 10.3%; residual activity [29]: 91%; residual activity [30]: 100%; residual activity [31]: 100%; residual activity [32]: 88%; residual activity [33]: 81%; residual activity [34]: 88%; residual activity [35]: 88%; residual activity [36]: 83%; % Inhibition of Control Specific Binding (Mean n=2) [37]: 10.3%; residual activity [38]: 100%; residual activity [39]: 100%; residual activity [40]: 76%; residual activity [41]: 95%; residual activity [42]: 80%; residual activity [43]: 92%; residual activity [44]: 70%
